Experimental data taken from patent US5246928A, “Thiadiazinones for stimulating cardiac activity” (Smith Kline & French Laboratories Limited, priority 1991, dated 1993).

Columns and labels:
[1] = test system: PDE (Peak III); experiment: Inhibition of PDE (Peak III) from cat heart; settings: read-out: IC50 × 10^-6, 1 μM cyclic AMP, pH 7.5, 37°
Description: (§1) The enzyme was assayed by incubation at 37° for 4-30 min in 50 mM Tris, 5 mM MgCl2, pH 7.5 with [3-H] cyclic nucleotide (4×10^5 disintegrations min^-1) and [14-C] nucleotide 5' monophosphate (3×10^3 disintegrations min^-1). The assay was stopped by boiling, and the [3-H] […] The reaction mixture was diluted with 0.5 ml 100 mM HEPES (N-2-Hydroxyethylpiperazine-N'-2-ethanesulfonic acid), 100 mM NaCl, pH 8.5, and applied to the column. […] The recovery of product as judged by [14-C] recovery was approximately 80%. All assays were linear with time of incubation and concentration of enzyme over the range used in these experiments.

[2] = test system: left ventricular contractility; experiment: Cardiac Stimulant Activity - In vivo (Anaesthetised Cats): increase in left ventricular dp/dt max, i.v.; parameters: species or system cat; settings: Felis catus, iv, read-out: ED50 (dose to increase left ventricular dp/dt max by 50%), pretreated with ganglion blocker and propranolol
[3] = test system: left ventricular dp/dt max; experiment: Cardiac Stimulant Activity - In vivo (Conscious Dogs): left ventricular dp/dt max; parameters: species or system dog
Description: Cardiac Stimulant Activity-In vivo (Conscious Dogs)
Oral administration caused positive inotropic responses at doses of 0.05 mg/kg and below.

[4] = test system: histamine-induced bronchoconstriction; experiment: Bronchodilatation in vivo: histamine-induced bronchoconstriction in anaesthetised guinea-pigs; parameters: species or system guinea-pig (Dunkin Hartley); settings: guinea-pig, i.v.; in words
Description: Male guinea-pigs of the Dunkin Hartley strain (530 g±6 g) were anaesthetised with Sagatal (pentobarbital sodium) (90 mg/kg i.p.). Airway resistance was measured using a modification of the classical Konzett-Rossler technique (Versuchsanordnung zu Untersuchungen an der Bronchialmuskulatur. Naunyn-Schmiedebergs Arch. Exp. Path. Pharmak., 195: pp 71-74, (1940)). A dose of histamine which gave approximately 150% increase in airway resistance was selected for i.v. administration. Bolus doses of the compound of Example 1 were administered (i.v.) one minute before the histamine challenge.
The threshold dose for this compound was 1×10^-8 mol/kg.

[5] = test system: PDE (Peak I); experiment: Substrate kinetics of PDE (Peak I) from cat heart; type: biochemical; settings: without calmodulin
Description: as §1

[6] = in words, in contrast to Example 1

O=c1ccn(-c2ccc(-c3c[nH]c(=O)cn3)cc2)cc1 [Example 11, 5-[4-(4-Oxo-1,4-dihydropyridin-1-yl)phenyl]-2(1H)-pyrazinone]
IC50 [1]: 2640 nM

O=c1ccn(-c2ccc(-c3n[nH]c(=O)s3)cc2)cc1 [Example 14, 5-[4-(4-Oxo-1,4-dihydropyridin-1-yl)phenyl]-1,3,4-thiadiazol-2(3H)-one]
IC50 [1]: 2260 nM
ED50 [2]: 0.82 µmol/kg

C[C@H]1CC(=O)NN=C1c1ccc(-n2ccc(=O)cc2)cc1 [Example 17, (S)-5-Methyl-6-[4-(4-oxo-1,4-dihydropyridin-1-yl)phenyl]-4,5-dihydro-3(2H)-pyridazinone]
IC50 [1]: 2580 nM

CC1CC(=O)NN=C1c1ccc(-n2ccc(=O)cc2)cc1 (stereo not shown) [Example 1, 5-Methyl-6-[4-(4-oxo-1,4-dihydropyridin-1-yl)phenyl]-4,5-dihydro-3(2H)-pyridazinone]
IC50 [1]: 410 nM
changes in blood pressure or heart rate ([3]; conscious dogs): without changes in blood pressure or heart rate
duration of positive inotropic responses ([3]; conscious dogs, 3 hours = maximum duration of measurement): more than 3 hours
'force-rate' selectivity ([3]; conscious dogs, in words): particularly beneficial
effect on histamine-induced bronchoconstriction [4]: reduced the histamine-induced bronchoconstriction

O=C1NN=C2c3ccc(-n4ccc(=O)cc4)cc3CC2S1 (stereo not shown) [Example 9, 7-(4-Oxo-1,4-dihydropyridin-1-yl)-9,9a-dihydroindeno[1,2-e][1,3,4]thiadiazin-2(3H)-one]
IC50 [1]: 1250 nM
ED50 [2]: 0.05 µmol/kg

C[C@@H]1CC(=O)NN=C1c1ccc(-n2ccc(=O)cc2)cc1 [Example 16, (R)-5-Methyl-6-[4-(4-oxo-1,4-dihydropyridin-1-yl)phenyl]-4,5-dihydro-3(2H)-pyridazinone]
IC50 [1]: 230 nM

O=C1COC(c2ccc(-n3ccc(=O)cc3)cc2)=NN1 [Example 5, 2-[4-(4-Oxo-1,4-dihydropyridin-1-yl)phenyl]-4H,6H-1,3,4-oxadiazin-5-one]
IC50 [1]: 4330 nM
ED50 [2]: 0.22 µmol/kg

CC1SC(=O)NN=C1c1ccc(-n2ccc(=O)cc2)cc1 (stereo not shown) [Example 10, 5-[4-(4-Oxo-1,4-dihydropyridin-1-yl)phenyl]-6-methyl-3H,6H-1,3,4-thiadiazin-2-one]
IC50 [1]: 440 nM
ED50 [2]: 0.07 µmol/kg

Nc1cc(-c2ccncc2)c[nH]c1=O [Amrinone, reference compound]
activity in comparison with compound of Example 1 [3, 6]: less active
duration in comparison with compound of Example 1 [3, 6]: shorter duration

CC12Cc3cc(-n4ccc(=O)cc4)ccc3C1=NNC(=O)S2 (stereo not shown) [Example 8, 7-(4-Oxo-1,4-dihydropyridin-1-yl)-9a-methyl-9,9a-dihydroindeno[1,2-e][1,3,4]thiadiazin-2(3H)-one]
IC50 [1]: 1320 nM
ED50 [2]: 0.07 µmol/kg

Nc1nc2c(ncn2[C@@H]2O[C@@H]3COP(=O)(O)O[C@H]3[C@H]2O)c(=O)[nH]1 [cyclic GMP]
Km [5]: 1.8 µM
Relative Vmax [5]: 1.1

O=C1NCC(c2ccc(-n3ccc(=O)cc3)cc2)=NN1 [Example 6, 6-[4-(4-Oxo-1,4-dihydropyridin-1-yl)phenyl]-4,5-dihydro-1,2,4-triazin-3(2H)-one]
IC50 [1]: 1750 nM
ED50 [2]: 0.23 µmol/kg

CC1NC(=O)NN=C1c1ccc(-n2ccc(=O)cc2)cc1 (stereo not shown) [Example 7, 6-[4-(4-Oxo-1,4-dihydropyridin-1-yl)phenyl]-5-methyl-4,5-dihydro-1,2,4-triazin-3(2H)-one]
IC50 [1]: 540 nM
ED50 [2]: 0.11 µmol/kg

O=C1CCC(c2ccc(-n3ccc(=O)cc3)cc2)=NN1 [Example 2, 6-[4-(4-Oxo-1,4-dihydropyridin-1-yl)phenyl]-4,5-dihydro-3(2H)-pyridazinone]
IC50 [1]: 5090 nM
ED50 [2]: 0.4 µmol/kg

O=c1ccn(-c2ccc(-c3ccc(=O)[nH]n3)cc2)cc1 [Example 3, 6-[4-(4-Oxo-1,4-dihydropyridin-1-yl)phenyl]-3(2H)-pyridazinone]
IC50 [1]: 3990 nM
ED50 [2]: 0.47 µmol/kg

O=C1CC2CCc3cc(-n4ccc(=O)cc4)ccc3C2=NN1 (stereo not shown) [Example 13, 8-(4-Oxo-1,4-dihydropyridin-1-yl)-4,4a, 5,6-tetrahydrobenzo[h]cinnolin-3(2H)-one]
IC50 [1]: 6600 nM
ED50 [2]: 0.78 µmol/kg

O=C1CSC(c2ccc(-n3ccc(=O)cc3)cc2)=NN1 [Example 4, 2-[4-(4-Oxo-1,4-dihydropyridin-1-yl)phenyl]-4H,6H-1,3,4-thiadiazin-5-one]
IC50 [1]: 1590 nM
ED50 [2]: 0.06 µmol/kg
